Reference: EP0115929A1, “Novel organic platinum complex and process for the preparation thereof” (priority 1983, dated 1984)

Legend:
Leukemia L-1210 = assay: Effect on life span of mice implanted with Leukemia L-1210 (Method B); assay type: in vivo; details: for ILS30: denominator in brackets of the therapeutic index cell; for ILS30 / OD: dose column in mg/kg/day; for 60-day survivors: survivors/mice in group; for increase in the life span of mice: dose of 50 mg/kg/day; for OD: numerator in brackets of the therapeutic index cell
Protocol: […] test compound was begun 24 hours after the inoculation of the leukemic cells and performed once a day for 5 days. The survival days of the treated mice were observed.

[1] = tested on: Ehrlich ascites carcinoma; assay: Preventive effect against the growth of Ehrlich ascites carcinoma (Method A); assay type: in vivo, mice; details: for MTD: footnote *3 in image, dose column in mg/kg/day; for MED: footnote *4 in image, b22: minimum effective dose per day which causes 100 % inhibition, in mg/kg/day; for M.E.D.: minimum effective dose per day which causes 100 % inhibition of Ehrlich ascites carcinoma
Excerpt: It may be useful to prolong the survival time of warm-blood .animals, including human,.afflicted with tumors and/or minimize the growth of tumors in said animals. […] The compound of the present invention is also useful for the treatment of various other tumors such as prostate tumor, orchis tumor, ovary tumor, malignant lymphoma, leukemia, breast cancer and the like.

[2] = dose 1.56 mg/kg/day, (C - T)/C x 100
[3] = dose 3.12 mg/kg/day, (C - T)/C x 100
[4] = dose 6.25 mg/kg/day, (C - T)/C x 100
[5] = dose 25 mg/kg/day, (C - T)/C x 100
[6] = dose 100 mg/kg/day, (C - T)/C x 100
[7] = dose 200 mg/kg/day, cell prints toxicity instead of inhibition (footnote *6 in image)

Substance	ILS30 (Leukemia L-1210)	ILS (%) (Leukemia L-1210; dose 1.56 mg/kg/day)	60-day survivors (Leukemia L-1210; dose 1.56 mg/kg/day)	ILS (%) (Leukemia L-1210; dose 3.12 mg/kg/day)	60-day survivors (Leukemia L-1210; dose 3.12 mg/kg/day)	ILS (%) (Leukemia L-1210; dose 6.25 mg/kg/day)	60-day survivors (Leukemia L-1210; dose 6.25 mg/kg/day)	ILS (%) (Leukemia L-1210; dose 12.5 mg/kg/day)	60-day survivors (Leukemia L-1210; dose 12.5 mg/kg/day)	ILS (%) (Leukemia L-1210; dose 25 mg/kg/day)	60-day survivors (Leukemia L-1210; dose 25 mg/kg/day)	ILS (%) (Leukemia L-1210; dose 50 mg/kg/day)	60-day survivors (Leukemia L-1210; dose 50 mg/kg/day)	ILS (%) (Leukemia L-1210; dose 100 mg/kg/day)	60-day survivors (Leukemia L-1210; dose 100 mg/kg/day)	increase in the life span of mice (Leukemia L-1210)	OD (Leukemia L-1210)	Inhibition rate (%) [1, 2]	Inhibition rate (%) [1, 3]	Inhibition rate (%) [1, 4]	further results
cis-Malonato(2-aminomethylpyridine) platinum (II) [Compound 2]	1.8	25.7%	0/4	47.1%	0/4	61.4%	0/4	92.9%	0/4	185.7%	0/4	>757.1%	4/4	>757.1%	4/4	more than 745%	100	12.9%	100%	100%	Inhibition rate (%) [1, 5]: 100%; Inhibition rate (%) [1, 6]: 100%; Inhibition rate (%) [1, 7]: Toxic(5/5)^*6; MTD [1]: 100; MED [1]: 3.12; M.E.D. [1]: 3.12 mg/kg/day
cis-Oxalato(2-aminomethylpyridine) platinum (II) [Compound 1]	1.3	33.8%	0/4	52.1%	0/4	80.3%	0/4	>269.0%	1/4	>463.4%	2/4	>745.1%	4/4	>745.1%	4/4	more than 745%	100	21.9%	100%	100%	ILS (%) (Leukemia L-1210; dose 0.78 mg/kg/day): 19.7%; 60-day survivors (Leukemia L-1210; dose 0.78 mg/kg/day): 0/4; Inhibition rate (%) [1, 5]: 100%; Inhibition rate (%) [1, 6]: 100%; Inhibition rate (%) [1, 7]: Toxic(5/5)^*6; MTD [1]: 100; MED [1]: 3.12; M.E.D. [1]: 3.12 mg/kg/day
cis-Dioxamato(2-aminomethylpyridine) platinum (II) [Compound 3]	1.65	28.6%	0/4	47.1%	0/4	85.7%	0/4	90.0%	0/4	100.0%	0/4	>607.1%	3/4	>757.1%	4/4	–	100	–	–	–	–
